According to ChEMBL document CHEMBL1129504, “Structure-activity relationship for antineoplastic imidazoacridinones: synthesis and antileukemic activity in vivo” (1996):

System: Mus musculus
Experiment: In vivo activity against murine P388 leukemia in mice at optimal dose 70 mg/kg/day
Assay type: functional

CN(C)CCCCCNc1ccc2ncn3c4ccc(O)cc4c(=O)c1c23 gave a T/C of 172%.
